Measurements reported in patent US12139458B2, “(2,5-dioxopyrrolidin-1-yl)(phenyl)-acetamide derivatives and their use in the treatment of neurological diseases” (UNIWERSYTET JAGIELLONSKI, priority 2019, dated 2024).

Key:
[1] = system: male Swiss albino mice (CD-1); experiment: Maximal electroshock seizure test (MES); type: in vivo; conditions: 0.5 h, mice; for ED50 / responders at 100 mg/kg: Mus musculus, ip; for responders at 100 mg/kg / MES: number of mice protected/number of mice tested: screening, 100 mg/kg i.p.; for responders at 100 mg/kg: read-out: MES: number of mice protected/number of mice tested (converted)
Protocol: (§1) The male Swiss albino mice (CD-1) weighing 18-26 g were used. All procedures were carried out in accordance with applicable Polish and international guidelines on the ethics of animal testing, after obtaining appropriate institutional approval. The substances were administered intraperitoneally (i.p.), in 1% aqueous solution of Tween, as single injections with a volume of 10 ml/kg, 30 minutes before the given test. Screening was performed on groups consisted of 4 mice. The average effective dose (ED50) in given test and toxic dose in the rotarod test (TD50) was estimated based on the results obtained in 3-4 groups of animals consisting of 6 mice. All tests were carried out based on the procedures described in the specialist literature.
In the MES test, the seizures were induced by an electrical stimulus lasting of 0.2 s duration, 500 V voltage and 25 mA intensity. The electrical stimuli was generated using an electric shock generator (Rodent shocker, Type 221, Hugo Sachs Elektronik, Germany) and delivered to the animal using electrodes placed on the auricles. The study was conducted 30 minutes after intraperitoneal administration of the compounds at various doses. During the experiment, the number of animals that experienced a seizure episode in the form of tonic extension of the hind limbs was counted (Kamiński, K.; Rapacz, A.; Łuszczki, J. J.; Latacz, G.; Obniska, J.; Kieć-Kononowicz, K.; Filipek, B. Bioorg. Med. Chem. 2015, 23, 2548-2561; Castel-Branco, M. M.; Alves, G. L.; Figueiredo, I. V.; Falcão, A. C.; Caramona, M. M. Methods Find. Exp. Clin. Pharmacol. 2009, 31, 101-106).
(§2) To perform a statistical evaluation of the results, one-way ANOVA variance analysis and Dunnett's post hoc test (multiple comparison test) were used. The value at the significance level p<0.05 was considered statistically significant.

[2] = system: male Swiss albino mice (CD-1); experiment: Psychomotor seizure test 6 Hz (44 mA); type: in vivo; conditions: screening, 100 mg/kg i.p., 0.5 h, mice
Protocol: as §1, with “All” for “The male Swiss albino mice (CD-1) weighing 18-26 g were used. All”, “The average effective dose (ED50) in given test and toxic dose in the rotarod test (TD50) was estimated based on the results obtained in 3-4 groups of animals consisting of 6 mice.” left out
In the 6 Hz test, seizures were induced by an electric stimulus of 32 mA and/or 44 mA and a frequency of 6 pulses per second. […] Before starting the test, the eye surface was gently moistened with a solution of local anesthetic (1% lidocaine solution). The study was conducted 30 minutes after intraperitoneal administration of the compounds at various doses. An electrical pulse was delivered continuously for a period of 3 seconds, followed by observation of the animal for a period of 10 seconds. During this time, immobility or stun associated with rearing, forelimb clonus, twitching of the vibrissae and Straub's tail were observed. These symptoms persist throughout the observation period, indicating the occurrence of psychomotor seizures in mice.
as §2

[3] = system: male Swiss albino mice (CD-1); experiment: Psychomotor seizure test 6 Hz (32 mA); type: in vivo; conditions: 0.5 h, mice; for ED50 / responders at 100 mg/kg: Mus musculus, ip; for 6 Hz (32 mA): number of mice protected/number of mice tested / responders at 100 mg/kg: screening, 100 mg/kg i.p.; for responders at 100 mg/kg: read-out: 6 Hz (32 mA): number of mice protected/number of mice tested (converted)
Protocol: as §1
In the 6 Hz test, seizures were induced by an electric stimulus of 32 mA and/or 44 mA and a frequency of 6 pulses per second. An electrical pulse was generated using an electric shock generator (ECT Unit 57800; Ugo Basile, Gemonio, Italy) and delivered to the animal using ocular electrodes. Before starting the test, the eye surface was gently moistened with a solution of local anesthetic (1% lidocaine solution). The study was conducted 30 minutes after intraperitoneal administration of the compounds at various doses. An electrical pulse was delivered continuously for a period of 3 seconds, followed by observation of the animal for a period of 10 seconds. During this time, immobility or stun associated with rearing, forelimb clonus, twitching of the vibrissae and Straub's tail were observed. These symptoms persist throughout the observation period, indicating the occurrence of psychomotor seizures in mice. Mice resuming normal behavior within 10 s after stimulation were considered as protected (Barton, M. E.; Klein, B. D.; Wolf, H. H.; White, H. S. Epilepsy Res. 2001, 47, 217-227; Wojda, E.; Wlaź, A.; Patsalos, P. N.; Łuszczki, J. J. Epilepsy Res. 2009, 86, 163-174).
as §2

[4] = Rotarod test (motor coordination); type: in vivo; conditions: male, Swiss albino (CD-1), mouse, in vivo, ip, mice
Protocol: as §1, with “All” for “The male Swiss albino mice (CD-1) weighing 18-26 g were used. All”, “The average effective dose (ED50) in given test and toxic dose in the rotarod test (TD50) was estimated based on the results obtained in 3-4 groups of animals consisting of 6 mice.” left out
Mice were trained the day before the actual experiment. They were placed individually on a 2 cm diameter rod rotating at 10 revolutions per minute (rpm). During each training session, the animals remained on the rod for 3 minutes. The experiment was carried out 30 minutes after administration of the compounds. Motor coordination was tested at the speed of the rotating bar: 10 rpm during 60 seconds. Motor impairments were defined as the inability to remain on the rotating rod for 1 min.
as §2

[5] = system: male Swiss albino mice (CD-1); experiment: Subcutaneous pentylenetetrazole seizure test (scPTZ); type: in vivo; conditions: 0.5 h, mice; for ED50 / responders at 100 mg/kg: Mus musculus, ip; for scPTZ: number of mice protected/number of mice tested / responders at 100 mg/kg: screening, 100 mg/kg i.p.; for responders at 100 mg/kg: read-out: scPTZ: number of mice protected/number of mice tested (converted)
Protocol: as §1
In the scPTZ test, seizures were induced by subcutaneous administration of pentylenetetrazole (PTZ) at a dose of 100 mg/kg. This caused clonic seizures with accompanying loss of the righting reflex. Test compounds were administered 30 minutes before the experiment. After PTZ administration, the animals were placed individually in transparent containers and observed for a period of 30 minutes for the occurrence of clonic seizures. During this time, the latency of the first onset of clonic seizures, defined as clonus of the whole body lasting at least 3 seconds with loss of the righting reflex and the number of seizure episodes during the test were noted and compared with control group. The absence of clonic convulsions within the observed time period was interpreted as the compound's ability to protect against PTZ-induced seizures (Ferreri, G.; Chimirri, A.; Russo, E.; Gitto, R.; Gareri, P.; De Sarro, A.; De Sarro, G. Pharmacol. Biochem. Behav. 2004, 77, 85-94; Łączkowski, K.; Sałat, K.; Misiura, K.; Podkowa, A.; Malikowska, N. J. Enzyme Inhib. Med. Chem. 2016, 31, 1576-82).
as §2

Compound | ED50 [1] [mg/kg] | responders at 100 mg/kg [1] [%] | 6 Hz (44 mA): number of mice protected/number of mice tested [2] | ED50 [3] [mg/kg] | 6 Hz (32 mA): number of mice protected/number of mice tested [3] | TD50 at 0.5 h [4] [mg/kg] | ED50 [5] [mg/kg] | scPTZ: number of mice protected/number of mice tested [5] | melting point [°C] | responders at 100 mg/kg [3] [%] | MES: number of mice protected/number of mice tested [1] | responders at 100 mg/kg [5] [%]
O=C(C(c1ccccc1)N1C(=O)CCC1=O)N1CCN(c2ccccc2)CC1 (racemic) [Compound 2, 1-(2-Oxo-1-phenyl-2-(4-phenylpiperazin-1-yl)ethyl)pyrrolidine-2,5-dione] | 91.1 | 100 | 2/4 | 83.5 | ¾ | > 300 | 100 | ¾ | 156.7 to 157.4 |  |  | 
O=C(C(c1ccccc1)N1C(=O)CCC1=O)N1CCN(c2cccc(Cl)c2)CC1 (racemic) [Compound 3, 1-(2-(4-(3-Chlorophenyl)piperazin-1-yl)-2-oxo-1-phenylethyl)pyrrolidine-2,5-dione] | 36.9 | 100 | ¾ | 39.5 |  | 144 | 52.6 | ¾ | 128.1 to 129 | 100 |  | 
O=C(C(c1ccccc1)N1C(=O)CCC1=O)N1CCN(c2cc(Cl)cc(Cl)c2)CC1 (racemic) [Compound 4, 1-(2-(4-(3,5-Dichlorophenyl)piperazin-1-yl)-2-oxo-1-phenylethyl)pyrrolidine-2,5-dione] | 68.5 |  |  | 17.7 |  | > 300 | > 100 | ¾ | 163.8 to 165.2 | 100 | ¾ | 
O=C(C(c1ccc(F)cc1)N1C(=O)CCC1=O)N1CCN(c2cccc(C(F)(F)F)c2)CC1 (racemic) [Compound 14, 1-(1-(4-Fluorophenyl)-2-oxo-2-(4-(3-(trifluoromethyl)phenyl)piperazin-1-yl)ethyl)pyrrolidine-2,5-dione] | 56.4 | 100 |  | 48.3 | ¾ | > 300 | < 100 |  | 88.8 to 90.7 |  |  | 50
O=C([C@@H](c1ccccc1)N1C(=O)CCC1=O)N1CCN(c2cccc(Cl)c2)CC1 [(R)-3, (R)-1-(2-(4-(3-chlorophenyl)piperazin-1-yl)-2-oxo-1-phenylethyl)pyrrolidine-2,5-dione] | 57.7 | 100 |  | 49.3 |  | 223 | 78.3 | ¾ | 167.3 to 168.1 | 100 |  | 
O=C([C@@H](c1ccccc1)N1C(=O)CCC1=O)N1CCN(c2cccc(OC(F)(F)F)c2)CC1 [(R)-10, (R)-1-(2-Oxo-1-phenyl-2-(4-(3-(trifluoromethoxy)phenyl)piperazin-1-yl)ethyl)pyrrolidine-2,5-dione] | 22.6 | 100 |  | 12.8 |  | > 150 | < 60 |  | 168.2 to 169.1 | 100 |  | 50
O=C([C@H](c1ccccc1)N1C(=O)CCC1=O)N1CCN(c2cccc(C(F)(F)F)c2)CC1 [(S)-6, (S)-1-(2-Oxo-1-phenyl-2-(4-(3-(trifluoromethyl)phenyl)piperazin-1-yl)ethyl) pyrrolidine-2,5-dione] | 68.5 |  | ¼ | > 130 |  | > 300 | 75.4 | ¾ |  | 50 | ¾ | 
